Assay results reported in ChEMBL document CHEMBL4425165, “Discovery of Pyrazolo[1,5-a]pyrimidine TTK Inhibitors: CFI-402257 is a Potent, Selective, Bioavailable Anticancer Agent” (ACS Med Chem Lett, 2016).
≈ marks a conversion by molar mass, not a printed value.

Key:
[1] = tested on: MDA-MB-468; test: Growth inhibition of human MDA-MB-468 cells measured after 5 days by sulforhodamine B assay; type: functional; details: MDA-MB-468, 120 h
[2] = tested on: OVCAR-3; test: Growth inhibition of human OVCAR3 cells measured after 5 days by sulforhodamine B assay; type: functional; details: OVCAR-3, 120 h
[3] = tested on: HCT-116; test: Growth inhibition of human HCT116 cells measured after 5 days by sulforhodamine B assay; type: functional; details: HCT-116, 120 h
[4] = AUC in athymic CD-1 nude mouse at 10 mg/kg, po by LC-MS/MS analysis; type: ADME, organism-based; details: in vivo
[5] = Cmax in athymic CD-1 nude mouse at 10 mg/kg, po by LC-MS/MS analysis; type: ADME, organism-based; set-up: dose 10 mg/kg, route oral; details: in vivo
[6] = Solubility of the compound at pH 7.4; type: physicochemical; details: buffer
[7] = Solubility of the compound at pH 2; type: physicochemical; details: buffer
[8] = Dissociation constant, pKa of the compound; type: physicochemical
[9] = molecular target: T1, Dual specificity protein kinase TTK (Homo sapiens, UniProt P33981)
T1 sequence (P33981 whole entry): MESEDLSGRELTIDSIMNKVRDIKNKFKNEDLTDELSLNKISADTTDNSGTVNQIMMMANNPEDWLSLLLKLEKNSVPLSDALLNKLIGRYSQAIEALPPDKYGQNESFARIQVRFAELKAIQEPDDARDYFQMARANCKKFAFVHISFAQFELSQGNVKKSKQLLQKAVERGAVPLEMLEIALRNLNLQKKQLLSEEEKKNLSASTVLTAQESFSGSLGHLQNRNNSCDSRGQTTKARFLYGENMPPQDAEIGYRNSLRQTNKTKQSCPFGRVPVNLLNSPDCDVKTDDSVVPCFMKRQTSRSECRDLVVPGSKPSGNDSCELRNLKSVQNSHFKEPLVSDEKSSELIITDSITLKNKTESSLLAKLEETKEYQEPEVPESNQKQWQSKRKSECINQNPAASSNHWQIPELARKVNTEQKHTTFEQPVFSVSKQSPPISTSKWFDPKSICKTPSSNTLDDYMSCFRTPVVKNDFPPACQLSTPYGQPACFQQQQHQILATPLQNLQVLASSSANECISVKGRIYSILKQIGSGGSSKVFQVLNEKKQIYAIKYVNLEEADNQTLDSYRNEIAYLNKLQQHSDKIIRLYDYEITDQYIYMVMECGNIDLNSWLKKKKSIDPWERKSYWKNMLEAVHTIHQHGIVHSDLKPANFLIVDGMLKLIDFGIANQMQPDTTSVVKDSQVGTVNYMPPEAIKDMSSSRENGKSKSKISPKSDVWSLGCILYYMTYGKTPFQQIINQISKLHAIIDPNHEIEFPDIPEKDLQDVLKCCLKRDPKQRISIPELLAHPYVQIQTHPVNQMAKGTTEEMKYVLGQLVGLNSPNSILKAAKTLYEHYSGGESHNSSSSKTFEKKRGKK

| Structure (SMILES) | GI50 [1] | GI50 [2] | GI50 [3] | AUC [4] | Cmax [5] | solubility [6] | solubility [7] | pKa [8] | IC50 [9] |
| --- | --- | --- | --- | --- | --- | --- | --- | --- | --- |
| Cc1cc(-c2cnn3c(NC[C@H]4C[C@](C)(O)C4)cc(Oc4cccnc4)nc23)ccc1C(=O)NC1CC1 | 71 nM | 100 nM | 40 nM | 3900 ng·h/mL | 1800 ng/mL | 3.3 µg/mL (≈ 6.62 µM) | 560 µg/mL (≈ 1120 µM) | 3.7 | – |
| Cc1cc(-c2cnn3c(NC[C@H]4C[C@H](O)C4)cc(Oc4cccnc4)nc23)ccc1C(=O)NC1CC1 | 2 nM | 11 nM | 2 nM | 130 ng·h/mL | 120 ng/mL | 5.4 µg/mL (≈ 11.1 µM) | 930 µg/mL (≈ 1920 µM) | 3.7 | 1.1 nM |
| Cc1cc(-c2cnn3c(NCC4CCOCC4)nc(Oc4ccccc4)nc23)ccc1C(=O)NC1CC1 | 160 nM | 190 nM | 14 nM | 1500 ng·h/mL | 890 ng/mL | 1.1 µg/mL (≈ 2.21 µM) | 1.5 µg/mL (≈ 3.01 µM) | 1.6 | 1.4 nM |
| Cc1cc(-c2cnn3c(NCCN4CCOCC4)cc(Oc4ccccc4)nc23)ccc1C(=O)NC1CC1 | 18 nM | 24 nM | 11 nM | 2700 ng·h/mL | 1000 ng/mL | 1.6 µg/mL (≈ 3.12 µM) | 12000 µg/mL (≈ 23400 µM) | 6.7 | 3 nM |
| Cc1cc(-c2cnn3c(NC[C@H]4CC[C@H](O)CC4)cc(Oc4cccnc4)nc23)ccc1C(=O)NC1CC1 | 160 nM | 270 nM | 50 nM | 700 ng·h/mL | 190 ng/mL | 2.1 µg/mL (≈ 4.1 µM) | 360 µg/mL (≈ 702 µM) | 3.7 | 2.8 nM |
| Cc1cc(-c2cnn3c(NC[C@H]4CC[C@@H](O)CC4)cc(Oc4cccnc4)nc23)ccc1C(=O)NC1CC1 | 19 nM | 43 nM | 17 nM | 3400 ng·h/mL | 750 ng/mL | 2.1 µg/mL (≈ 4.1 µM) | 360 µg/mL (≈ 702 µM) | 3.7 | 1.8 nM |
| Cc1cc(-c2cnn3c(NCC4CCOCC4)cc(Oc4ccccc4)nc23)ccc1C(=O)NC1CC1 | 13 nM | 22 nM | 3 nM | 3100 ng·h/mL | 560 ng/mL | 0.5 µg/mL (≈ 1 µM) | 12 µg/mL (≈ 24.1 µM) | 3.4 | 2.5 nM |

Further lines, results first:

| GI50 [1] | GI50 [2] | GI50 [3] | AUC [4] | Cmax [5] | solubility [6] | solubility [7] | pKa [8] | IC50 [9] | Structure (SMILES) |
| --- | --- | --- | --- | --- | --- | --- | --- | --- | --- |
| 130 nM | 210 nM | 49 nM | – | – | 3.6 µg/mL (≈ 7.37 µM) | 110 µg/mL (≈ 225 µM) | 3.2 | 5.3 nM | Cc1cc(-c2cnn3c(NC[C@H]4C[C@](C)(O)C4)cc(NC4CCCC4)nc23)ccc1C(=O)NC1CC1 |
| 3 nM | 9 nM | 1 nM | 2400 ng·h/mL | 2200 ng/mL | 13 µg/mL (≈ 25.1 µM) | 410 µg/mL (≈ 790 µM) | 3.3 | 2 nM | Cc1cc(-c2cnn3c(NCC4CCOCC4)cc(N[C@H]4CCCC[C@H]4O)nc23)ccc1C(=O)NC1CC1 |
| 35 nM | 68 nM | 14 nM | 130 ng·h/mL | 180 ng/mL | 5.4 µg/mL (≈ 11.4 µM) | 930 µg/mL (≈ 1960 µM) | 3.7 | 2.4 nM | Cc1cc(-c2cnn3c(NC[C@H]4C[C@H](O)C4)cc(NC4CCCC4)nc23)ccc1C(=O)NC1CC1 |
| 57 nM | 87 nM | 14 nM | 7300 ng·h/mL | 2900 ng/mL | 3.6 µg/mL (≈ 7.37 µM) | 110 µg/mL (≈ 225 µM) | 3.2 | 2.6 nM | Cc1cc(-c2cnn3c(NC[C@H]4C[C@@](C)(O)C4)cc(NC4CCCC4)nc23)ccc1C(=O)NC1CC1 |
| 36 nM | 90 nM | 15 nM | 4000 ng·h/mL | 2300 ng/mL | 3.1 µg/mL (≈ 6.34 µM) | 88 µg/mL (≈ 180 µM) | 3.2 | 3.2 nM | Cc1cc(-c2cnn3c(NCC4CCOCC4)cc(NC4CCCC4)nc23)ccc1C(=O)NC1CC1 |
| 320 nM | 480 nM | 130 nM | 530 ng·h/mL | 430 ng/mL | 3.6 µg/mL (≈ 7.35 µM) | 28 µg/mL (≈ 57.2 µM) | 2.7 | 5.8 nM | Cc1cc(-c2cnn3c(NCC4CCOCC4)nc(NC4CCCC4)nc23)ccc1C(=O)NC1CC1 |
| 180 nM | 340 nM | 130 nM | – | – | 13 µg/mL (≈ 25.1 µM) | 410 µg/mL (≈ 790 µM) | 3.3 | 13 nM | Cc1cc(-c2cnn3c(NCC4CCOCC4)cc(N[C@@H]4CCCC[C@H]4O)nc23)ccc1C(=O)NC1CC1 |
| 480 nM | 1100 nM | 210 nM | – | – | 27 µg/mL (≈ 54.8 µM) | 1100 µg/mL (≈ 2230 µM) | 3.5 | 21 nM | CC[C@H](CO)Nc1cc(NCC2CCOCC2)n2ncc(-c3ccc(C(=O)NC4CC4)c(C)c3)c2n1 |
| 62 nM | 79 nM | 59 nM | 1500 ng·h/mL | 1300 ng/mL | 23 µg/mL (≈ 45.6 µM) | 480 µg/mL (≈ 951 µM) | 3.2 | 2.7 nM | Cc1cc(-c2cnn3c(NCC4CCOCC4)cc(N[C@H]4CCC[C@H]4O)nc23)ccc1C(=O)NC1CC1 |
